Laboratory results as given in US20080009418A1, “Selective Inhibitors” (Alchemia LTD., priority 2004, published 2008).

Columns and labels:
Conditions in all cases: compound at 10 μM
Human δ-opioid (DOP) = target: T1, Human δ-opioid (DOP) (Homo sapiens, UniProt P41143); assay: Radioligand binding, human δ-opioid (DOP) membranes, FlashPlate, [3H]-Bremazocine
T1 construct: purchased Perkin Elmer Biosignal
How it was run: (§1)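 Cloned human receptor membranes were coated onto FlashPlate wells and incubated with radioligand and compound (added from a 0.5 mM DMSO daughter plate) for 1 hour at room temperature in the dark. Scintillation counting gave percent inhibition, with DMSO defining total and reference ligand defining non-specific binding.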

Human κ-Opioid (KOP) = target: T2, Human κ-Opioid (KOP) (Homo sapiens, UniProt P41145); assay: Radioligand binding, human κ-opioid (KOP) membranes, filtration, [3H]-Diprenorphine
T2 construct: purchased Perkin Elmer Biosignal
How it was run: (§2)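 Filtration binding on cloned human receptor membranes (1 Unit/well), [125I]-Substance P for NK1 and [3H]-Diprenorphine for KOP, 1 h at room temperature. Filters PEI-presoaked, washed with cold 50 mM Tris-HCl pH 7.4, counted by scintillation; percent inhibition calculated, reference ligand defining non-specific binding.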

Human Melanocortin (MC3) = target: T3, Human Melanocortin (MC3) (Homo sapiens, UniProt P41968); assay: Radioligand binding, human melanocortin MC3 membranes, FlashPlate, [125I]-NDP-αMSH
T3 construct: purchased Perkin Elmer Biosignal
How it was run: as §1

Human Melanocortin (MC4) = target: T4, Human Melanocortin (MC4) (Homo sapiens, UniProt P32245); assay: Radioligand binding, human melanocortin MC4 membranes, FlashPlate, [125I]-NDP-αMSH
T4 construct: purchased Perkin Elmer Biosignal
How it was run: as §1

Human melanocortin (MC5) = target: T5, Human melanocortin (MC5) (Homo sapiens, UniProt P33032); assay: Radioligand binding, human melanocortin MC5 membranes, FlashPlate, [125I]-NDP-αMSH
T5 construct: purchased Perkin Elmer Biosignal
How it was run: as §1

[1] = target: T6, Human melanin-concentrating hormone (MCH1) (Homo sapiens, UniProt Q99705); assay: Radioligand binding, human melanin-concentrating hormone MCH1 membranes, FlashPlate, [125I]-S36057
T6 construct: purchased Perkin Elmer Biosignal
How it was run: as §1

Human μ-opioid (MOP) = target: T7, Human μ-opioid (MOP) (Homo sapiens, UniProt P35372); assay: Radioligand binding, human μ-opioid (MOP) membranes, FlashPlate, [3H]-Naloxone
T7 construct: purchased Perkin Elmer Biosignal
How it was run: as §1

Human neurokinin (NK1) = target: T8, Human neurokinin (NK1) (Homo sapiens, UniProt P25103); assay: Radioligand binding, human neurokinin NK1 membranes, filtration, [125I]-Substance P
T8 construct: purchased Perkin Elmer Biosignal
How it was run: as §2

[2] = target: T9, Human neuropeptide Y (NPY-Y1) (Homo sapiens, UniProt P25929); assay: Radioligand binding, human neuropeptide Y NPY-Y1 membranes, FlashPlate, [125I]-PYY
T9 construct: purchased Perkin Elmer Biosignal
T9 sequence (P25929 1-384): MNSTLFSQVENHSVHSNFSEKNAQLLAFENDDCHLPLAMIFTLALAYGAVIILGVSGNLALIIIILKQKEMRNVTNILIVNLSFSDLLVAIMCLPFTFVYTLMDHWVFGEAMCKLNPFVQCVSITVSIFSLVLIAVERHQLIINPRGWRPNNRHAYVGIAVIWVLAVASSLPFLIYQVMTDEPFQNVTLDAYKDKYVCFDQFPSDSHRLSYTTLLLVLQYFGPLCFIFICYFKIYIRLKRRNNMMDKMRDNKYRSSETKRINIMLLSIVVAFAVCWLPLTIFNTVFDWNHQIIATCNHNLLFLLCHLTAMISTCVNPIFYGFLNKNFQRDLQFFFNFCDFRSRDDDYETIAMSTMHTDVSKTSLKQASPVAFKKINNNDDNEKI
How it was run: as §1

Human opioid (ORL1) = target: T10, Human opioid (ORL1) (Homo sapiens, UniProt P41146); assay: Radioligand binding, human opioid ORL1 membranes, FlashPlate, [125I]-Nociceptin
T10 construct: purchased Perkin Elmer Biosignal
How it was run: as §1

Mouse urotensin (mUR2) = target: T11, Mouse urotensin (mUR2) (Mus musculus, UniProt Q8VIH9); assay: Radioligand binding, mouse urotensin mUR2 membranes, FlashPlate, [125I]-Urotensin II
T11 construct: purchased Perkin Elmer Biosignal
T11 sequence (Q8VIH9 1-385): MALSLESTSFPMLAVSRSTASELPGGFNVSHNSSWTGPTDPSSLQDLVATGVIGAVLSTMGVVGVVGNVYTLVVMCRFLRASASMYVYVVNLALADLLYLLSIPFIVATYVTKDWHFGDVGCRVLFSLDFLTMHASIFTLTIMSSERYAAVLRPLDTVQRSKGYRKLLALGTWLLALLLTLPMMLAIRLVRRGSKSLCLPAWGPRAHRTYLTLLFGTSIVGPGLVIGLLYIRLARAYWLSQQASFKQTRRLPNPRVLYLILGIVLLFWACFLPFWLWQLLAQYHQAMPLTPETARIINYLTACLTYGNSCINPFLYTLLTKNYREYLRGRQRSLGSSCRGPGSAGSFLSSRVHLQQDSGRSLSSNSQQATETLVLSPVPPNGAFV
How it was run: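 Cloned mouse urotensin (mUR2) receptor membranes from Perkin Elmer Biosignal were immobilized in FlashPlate microplates using a proprietary coating. Each well got 19.5 μl buffer, then 0.5 μl of DMSO, reference ligand, or compound. Adding 5 μl of [125I]-Urotensin II, diluted to 5× final concentration in binding buffer, started binding. Plates were sealed with TopSeal-A and incubated 1 hour at room temperature in the dark. Wells were counted for 30 seconds each on a TopCount after a 60-second delay, and percentage inhibition was calculated.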

T5 sequence (P33032 whole entry): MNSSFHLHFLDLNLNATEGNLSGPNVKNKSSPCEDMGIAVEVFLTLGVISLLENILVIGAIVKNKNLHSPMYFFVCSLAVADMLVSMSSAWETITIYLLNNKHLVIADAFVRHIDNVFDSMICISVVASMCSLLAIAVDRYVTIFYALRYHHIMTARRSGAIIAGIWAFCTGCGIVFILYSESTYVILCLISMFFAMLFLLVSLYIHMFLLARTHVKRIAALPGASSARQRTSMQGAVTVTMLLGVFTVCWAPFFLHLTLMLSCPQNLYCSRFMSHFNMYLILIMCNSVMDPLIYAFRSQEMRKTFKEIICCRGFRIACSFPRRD
T3 sequence (P41968 whole entry): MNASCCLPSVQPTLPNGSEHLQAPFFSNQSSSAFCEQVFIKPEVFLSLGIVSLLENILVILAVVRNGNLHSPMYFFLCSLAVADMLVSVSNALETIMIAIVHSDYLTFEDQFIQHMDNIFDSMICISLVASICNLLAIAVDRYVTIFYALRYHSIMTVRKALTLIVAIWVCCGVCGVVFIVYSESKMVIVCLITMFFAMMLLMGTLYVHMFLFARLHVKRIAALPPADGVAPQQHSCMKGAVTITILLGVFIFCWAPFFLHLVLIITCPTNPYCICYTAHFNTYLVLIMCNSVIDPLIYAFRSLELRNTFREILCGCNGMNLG
T10 sequence (P41146 whole entry): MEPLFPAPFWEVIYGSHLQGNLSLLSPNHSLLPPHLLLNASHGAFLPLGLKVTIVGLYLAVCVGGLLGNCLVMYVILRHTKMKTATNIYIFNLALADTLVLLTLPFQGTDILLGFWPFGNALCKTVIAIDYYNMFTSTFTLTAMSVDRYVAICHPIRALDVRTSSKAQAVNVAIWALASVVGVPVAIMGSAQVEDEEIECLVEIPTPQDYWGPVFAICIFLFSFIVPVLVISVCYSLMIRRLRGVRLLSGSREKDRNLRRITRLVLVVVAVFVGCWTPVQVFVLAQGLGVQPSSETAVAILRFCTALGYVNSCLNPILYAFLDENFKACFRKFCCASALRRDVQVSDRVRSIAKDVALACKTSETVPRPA
T6 sequence (Q99705 whole entry): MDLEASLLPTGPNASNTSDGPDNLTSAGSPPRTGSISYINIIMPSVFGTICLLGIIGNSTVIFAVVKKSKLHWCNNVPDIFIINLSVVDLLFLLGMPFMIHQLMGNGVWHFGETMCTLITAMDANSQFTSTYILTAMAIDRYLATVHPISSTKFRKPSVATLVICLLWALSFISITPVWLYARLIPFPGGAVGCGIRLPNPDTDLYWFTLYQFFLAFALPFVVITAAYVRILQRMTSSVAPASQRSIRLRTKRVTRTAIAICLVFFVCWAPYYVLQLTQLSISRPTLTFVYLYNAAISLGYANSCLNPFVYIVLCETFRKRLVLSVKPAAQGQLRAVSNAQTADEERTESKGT
T7 sequence (P35372 whole entry): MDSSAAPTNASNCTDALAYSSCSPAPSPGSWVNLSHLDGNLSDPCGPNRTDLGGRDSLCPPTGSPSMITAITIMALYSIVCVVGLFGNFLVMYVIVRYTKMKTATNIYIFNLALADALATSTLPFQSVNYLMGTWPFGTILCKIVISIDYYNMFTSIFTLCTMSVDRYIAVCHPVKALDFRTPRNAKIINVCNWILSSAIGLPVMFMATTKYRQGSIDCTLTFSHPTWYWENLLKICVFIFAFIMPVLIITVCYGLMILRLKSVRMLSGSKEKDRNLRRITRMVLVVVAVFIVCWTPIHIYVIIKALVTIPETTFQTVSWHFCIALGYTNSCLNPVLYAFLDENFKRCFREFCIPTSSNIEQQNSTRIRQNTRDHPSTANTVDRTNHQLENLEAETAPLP
T2 sequence (P41145 whole entry): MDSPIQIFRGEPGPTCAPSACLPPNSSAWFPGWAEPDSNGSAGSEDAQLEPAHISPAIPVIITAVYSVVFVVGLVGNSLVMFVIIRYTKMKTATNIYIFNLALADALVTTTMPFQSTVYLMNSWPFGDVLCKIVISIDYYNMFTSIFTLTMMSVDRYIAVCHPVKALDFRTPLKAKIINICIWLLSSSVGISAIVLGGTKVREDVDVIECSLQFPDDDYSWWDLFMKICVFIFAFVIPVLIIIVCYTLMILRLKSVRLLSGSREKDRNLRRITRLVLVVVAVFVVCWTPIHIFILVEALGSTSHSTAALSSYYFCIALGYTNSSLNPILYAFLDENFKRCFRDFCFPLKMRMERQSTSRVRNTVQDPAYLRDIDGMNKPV
T4 sequence (P32245 whole entry): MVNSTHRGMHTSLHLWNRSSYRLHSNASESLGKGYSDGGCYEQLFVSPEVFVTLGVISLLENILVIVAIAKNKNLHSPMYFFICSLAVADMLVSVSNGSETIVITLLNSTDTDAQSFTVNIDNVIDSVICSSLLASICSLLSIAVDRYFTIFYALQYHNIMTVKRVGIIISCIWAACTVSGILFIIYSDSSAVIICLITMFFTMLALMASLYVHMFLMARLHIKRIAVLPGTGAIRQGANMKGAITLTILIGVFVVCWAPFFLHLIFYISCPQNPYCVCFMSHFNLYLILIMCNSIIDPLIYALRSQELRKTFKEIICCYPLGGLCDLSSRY
T1 sequence (P41143 whole entry): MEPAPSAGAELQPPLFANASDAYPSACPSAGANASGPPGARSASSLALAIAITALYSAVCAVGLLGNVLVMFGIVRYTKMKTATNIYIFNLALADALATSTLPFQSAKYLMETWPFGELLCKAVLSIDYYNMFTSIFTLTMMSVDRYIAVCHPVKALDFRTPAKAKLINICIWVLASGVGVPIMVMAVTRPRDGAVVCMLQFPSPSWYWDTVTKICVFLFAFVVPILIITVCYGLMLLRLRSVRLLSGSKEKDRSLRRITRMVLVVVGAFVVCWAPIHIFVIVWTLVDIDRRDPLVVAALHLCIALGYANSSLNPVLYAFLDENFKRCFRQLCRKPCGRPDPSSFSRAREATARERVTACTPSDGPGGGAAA
T8 sequence (P25103 whole entry): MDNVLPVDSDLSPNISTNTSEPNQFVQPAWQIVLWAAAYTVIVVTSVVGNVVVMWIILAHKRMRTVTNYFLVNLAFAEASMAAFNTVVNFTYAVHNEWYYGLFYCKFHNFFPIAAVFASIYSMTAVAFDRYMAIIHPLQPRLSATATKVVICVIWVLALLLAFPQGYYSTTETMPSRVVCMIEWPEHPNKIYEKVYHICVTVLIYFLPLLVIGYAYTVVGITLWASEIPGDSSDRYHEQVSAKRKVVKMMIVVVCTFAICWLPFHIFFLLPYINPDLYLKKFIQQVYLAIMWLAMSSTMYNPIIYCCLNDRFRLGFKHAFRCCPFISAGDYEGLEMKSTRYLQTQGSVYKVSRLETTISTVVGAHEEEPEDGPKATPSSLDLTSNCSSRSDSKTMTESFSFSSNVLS

COCC1OC(OCc2ccccc2)C(NC(=O)CCN)C(OCc2ccc(-c3ccccc3)cc2)C1O (stereo not shown) [compound 184]
A1 radioligand binding, percentage inhibition (Human δ-opioid (DOP); [3H]-Bremazocine): − (“−” indicates less than 50% inhibition at 10 μM) | A2 radioligand binding, percentage inhibition (Human κ-Opioid (KOP); [3H]-Diprenorphine): − (“−” indicates less than 50% inhibition at 10 μM) | A3 radioligand binding, percentage inhibition (Human Melanocortin (MC3); [125I]-NDP-αMSH): − (“−” indicates less than 50% inhibition at 10 μM) | A4 radioligand binding, percentage inhibition (Human Melanocortin (MC4); [125I]-NDP-αMSH): − (“−” indicates less than 50% inhibition at 10 μM) | A5 radioligand binding, percentage inhibition (Human melanocortin (MC5); [125I]-NDP-αMSH): + (“+” indicates greater than 50% inhibition at 10 μM) | A6 radioligand binding, percentage inhibition ([1]; [125I]-S36057): − (“−” indicates less than 50% inhibition at 10 μM) | A7 radioligand binding, percentage inhibition (Human μ-opioid (MOP); [3H]-Naloxone): − (“−” indicates less than 50% inhibition at 10 μM) | A8 radioligand binding, percentage inhibition (Human neurokinin (NK1); [125I]-Substance P): + (“+” indicates greater than 50% inhibition at 10 μM) | A9 radioligand binding, percentage inhibition ([2]; [125I]-PYY): − (“−” indicates less than 50% inhibition at 10 μM) | A10 radioligand binding, percentage inhibition (Human opioid (ORL1); [125I]-Nociceptin): − (“−” indicates less than 50% inhibition at 10 μM) | A11 radioligand binding, percentage inhibition (Mouse urotensin (mUR2); [125I]-Urotensin II): − (“−” indicates less than 50% inhibition at 10 μM)

COC[C@H]1OC(OCc2ccc3ccccc3c2)[C@H](NC(=O)CNC(=N)N)[C@@H](OCc2ccc(-c3ccccc3)cc2)[C@@H]1O (stereo partly shown) [compound 15]
A1 radioligand binding inhibition (Human δ-opioid (DOP); human δ-opioid (DOP) membranes): − (“−” indicates less than 50% inhibition at 10 μM) | A2 radioligand binding inhibition (Human κ-Opioid (KOP); human κ-opioid (KOP) membranes): − (“−” indicates less than 50% inhibition at 10 μM) | A3 radioligand binding inhibition (Human Melanocortin (MC3); human melanocortin MC3 membranes): − (“−” indicates less than 50% inhibition at 10 μM) | A4 radioligand binding inhibition (Human Melanocortin (MC4); human melanocortin MC4 membranes): + (“+” indicates greater than 50% inhibition at 10 μM) | A5 radioligand binding inhibition (Human melanocortin (MC5); human melanocortin MC5 membranes): + (“+” indicates greater than 50% inhibition at 10 μM) | A6 radioligand binding inhibition ([1]; human MCH1 membranes): + (“+” indicates greater than 50% inhibition at 10 μM) | A7 radioligand binding inhibition (Human μ-opioid (MOP); human μ-opioid (MOP) membranes): + (“+” indicates greater than 50% inhibition at 10 μM) | A8 radioligand binding inhibition (Human neurokinin (NK1); human neurokinin NK1 membranes): − (“−” indicates less than 50% inhibition at 10 μM) | A9 radioligand binding inhibition ([2]; human NPY-Y1 membranes): − (“−” indicates less than 50% inhibition at 10 μM) | A10 radioligand binding inhibition (Human opioid (ORL1); human ORL1 membranes): − (“−” indicates less than 50% inhibition at 10 μM) | A11 radioligand binding inhibition (Mouse urotensin (mUR2); mouse urotensin mUR2 membranes): − (“−” indicates less than 50% inhibition at 10 μM)
